Assay results reported in patent US10716771B2, “Pharmaceutical composition for preventing or treating immune diseases or inflammatory diseases, containing biguanide derivative compound as active ingredient” (THE CATHOLIC UNIVERSITY OF KOREA INDUSTRY-ACADEMIC …, priority 2013, dated 2020).

Columns and labels:
IL-17 = IL-17 generation in mouse spleen cells under Th17 differentiation, sandwich ELISA; type: cell-based; settings: mouse spleen cells under Th17 stimulating condition, 3 days
Procedure: In order to verify whether the biguanide derivative compound of the present invention has the activity of […] generation of IL-17 as an inflammatory cytokine in a Th17 cell which is a pathogenic cell, an expression degree of IL-17 was measured by an ELISA assay.
(§1) Spleen cells were obtained from a normal mouse of C57BL/6 (Orient Company, Korea). That is, the tissue of the spleen extracted from the mouse was finely grinded by using a teasing slide and then erythrocytes in the spleen were removed by an erythrocyte hemolysis solution. Thereafter, a PBS buffer solution was added, centrifuged, and washed to obtain spleen cells.
1×10^6 of the spleen cells from the mouse prepared through Example <2-1> were divided in a 24-well plate coated with […] of anti-CD3 antibody and simultaneously treated with 1 μg/mL of anti-CD28 antibody, 2 ng/ml of TGF-β, 20 ng/ml of IL-6 20 ng/ml, 2 μg/ml of anti-IL-4, and 2 μg/ml of anti-IFNr as a condition capable of stimulating Th17 cells, and then the cells were incubated for 3 days to induce the differentiation of the Th17 cells. […]
In order to measure an amount of the generated IL-17 cytokine, a supernatant of the incubated cells was collected and the IL-17 expression degree was examined by using a sandwich ELISA. […] Thereafter, a PNPP/DEA solution was added and colored, and then the absorbance was measured at a wavelength of 405 nm.

TNF-α = TNF-α generation in LPS-treated mouse spleen cells, ELISA; type: cell-based; settings: 2, 20, 200 μM with LPS 100 ng/ml, 3 days; compared with only LPS
Procedure: as §1
Since it is known that Metformin used as the diabetes therapeutic agent currently on the market has a slight effect of blocking TNF-α as the inflammatory cytokine, in order to verify whether the biguanide derivative compound of the present invention has activity of reducing the generation of TNF-α, the expression degree of TNF-α was measured by an ELISA assay. […]
In order to measure an amount of the generated TNF-α cytokine, a supernatant of the incubated cells was collected and the TNF-α generation degree was examined by using an ELISA. […] Thereafter, a PNPP/DEA solution was added and colored, and then the absorbance was measured at a wavelength of 405 nm.

Row | Structure (SMILES) | IL-17 generated amount, dependence on treatment concentration (IL-17; 2 μM, 20 μM and 200 μM) | generated amount of IL-17 (IL-17; 200 μM, sandwich ELISA) | generated amount of TNF-α (TNF-α)
1 | CC(C)NC(=N)NC(=N)N [SD-000196, 1-isopropylbiguanide] | reduced depending on the treatment concentration | completely suppressed | 
2 | NC(N)=N/C(N)=N/c1cccc(F)c1 [SD-000216, 1-(3-fluorophenyl)biguanide] |  |  | very significantly reduced
3 | N=C(N)NC(=N)Nc1ccc(F)cc1F [SD-000217, 1-(2,4-difluorophenyl)biguanide] |  |  | very significantly reduced
